Columns and labels:
PD-1/PD-L1 = PD-1/PD-L1 (Homo sapiens (Human), UniProt Q9NZQ7); assay: NFAT assay: TCR Activitor/PD-L1 CHO cells co-cultured with PD-1/NFAT Reporter-Jurkat cells, Bright-Glo readout; assay type: cell-based; conditions: PD-L1 CHO / PD-1 NFAT Reporter-Jurkat co-culture, 5 hours
Method: PD1:PD-L1 TR-FRET assay kit, purchased from BPS Biosciences. Bright-Glo reagents purchased from Promega. Nivo multimode microplate reader (PerkinElmer)
TCR Activitor/PD-L1 CHO cells with a growth confluence of 80% were seeded at 35,000 cells per well in a plate and then incubated overnight in a 37° C. cell culture incubator. The compound to be tested was 5-fold diluted with a pipette to the 8th concentration, i.e., from 100 μmol to 1.28 nmol, with a DMSO concentration of 100%. Experiments were set up in duplicate wells. 147 μL of culture medium was added to an intermediate plate, and then 3 μL of gradient diluted compound per well was transferred to the intermediate plate according to the corresponding position, resulting in compound concentrations ranging from 2 μmol to 0.0256 nmol with a DMSO concentration of 2%. The T cell receptor/PD-L1 CHO cell supernatant was discarded, and 50 μL of compound working solution was added to each well, followed by incubation at 37° C. for 30 minutes. After incubation, 50 μL of a PD-1/NFAT Reporter-Jurkat cell suspension at a density of 4×10^5/mL was added to each well, and the plate was incubated at 37° C. for 5 hours. After the incubation, 100 μL of Bright-Glo was added to each well. After mixing, chemiluminescence signals were read using a Nivo the multimode microplate reader.
Raw data was converted into inhibition rate using the equation: (Sample−Min)/(Max−Min)*100%. The IC50 value could then be derived by performing a curve fit using a four-parameter logistic model (obtained using the “log(inhibitor) vs. response—Variable slope” mode in GraphPad Prism). The degree of inhibition of the compound on PD-1/PD-L1 was calculated using the equation (Max−Min)/Min. The higher the multiple, the stronger the inhibition of the PD-1/PD-L1 pathway.

[1] = In vivo pharmacokinetics study in mice; design: species or system C57BL/6 mice; conditions: male, C57BL/6, plasma, mouse
Method: Male C57BL/6 mice were used as test animals, and the drug concentration in plasma at different times after intragastric administration of the test compound was determined by LC/MS/MS method. The pharmacokinetic behavior of the test compounds in mice in vivo was studied to evaluate their pharmacokinetic characteristics.
Test animals: Healthy male C57BL/6 mice. Drug preparation: For the IV group, the vehicle was 5% DMSO+95% (20% hydroxypropyl-β-cyclodextrin); for the PO group, the vehicle was 5% DMSO+95% (20% HP-β-CD). Administration: The dosage of the test compound was 1 mg/kg for the IV group, and 10 mg/kg or 30 mg/kg for the PO group (note: the PO group was fasted overnight before administration).
Experimental operations: After administration, whole blood was collected for a certain period of time and prepared into plasma. The drug concentration was analyzed by the LC-MS/MS method, and the pharmacokinetic parameters were calculated using Phoenix WinNonlin software (Pharsight, USA)

MC38-hPD-L1 colon cancer = assay: Drug efficacy in MC38-hPD-L1 colon cancer model of B-hPD-L1 humanized mice; assay type: in vivo; conditions: compounds 20 to 50 mg/kg p.o. BID 21 days; atezolizumab 5 mg/kg i.p. TIW 10 times
Method: Mouse colon cancer MC38 cells were purchased from Shunran Shanghai Biotech Co., Ltd. Biocytogen (Beijing) Co. Ltd genetically modified the MC38 cells to express human PD-L1, and named it MC38-hPD-L1. These cells were adherent cells, cultured in a 37° C., 5% CO2 incubator. The culture medium composition was Dulbecco's Modified Eagle's Medium (DMEM) containing 10% inactivated fetal bovine serum.
MC38-hPD-L1 cells resuspended in PBS were inoculated subcutaneously into the right flank of B-hPD-L1 mice at a volume of 5×10^5 cells/0.1 mL per mouse. When the average tumor volume reached 150±50 mm^3, suitable mice were selected based on tumor volume and body weight, and were evenly distributed into each group, with 8 mice per group. Drug administration started on the day of grouping. The administration vehicle of the oral administration group was 5% DMSO+95% (20% HP-β-CD in water), while the administration vehicle of the intraperitoneal injection group was 0.9% sodium chloride injection.
Note: a. The administration volume was calculated based on the weight of the experimental animals at […]; b. The dose was 20 mg/kg within 5 days after grouping, and the dose was adjusted to 50 mg/kg starting from the 6th day; c. “p.o.” refers to oral administration, “i.p.” refers to intraperitoneal injection; d. “TIW” refers to three times a week, “BID” refers to twice a day.
Tumor growth inhibition (TGITV): TGITV (%)=[1−(Ti−T0)/(Vi−V0)][…]% (Ti: mean tumor volume of the treatment group on day i of administration, T0: mean tumor volume of the treatment group on day 0 of administration, Vi: mean tumor volume of the vehicle control group on day i of administration, V0: mean tumor volume of the vehicle control group on day 0 of administration).

Chain of PD-1/PD-L1 (Q9NZQ7 19-290): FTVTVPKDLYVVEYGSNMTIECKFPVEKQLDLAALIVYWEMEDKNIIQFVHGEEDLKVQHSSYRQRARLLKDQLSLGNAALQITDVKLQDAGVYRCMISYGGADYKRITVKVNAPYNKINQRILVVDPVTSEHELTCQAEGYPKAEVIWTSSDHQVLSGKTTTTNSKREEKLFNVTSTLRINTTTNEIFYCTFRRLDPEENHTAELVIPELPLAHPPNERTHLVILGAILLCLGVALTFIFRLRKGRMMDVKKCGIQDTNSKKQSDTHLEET

| IC50 (PD-1/PD-L1) | Compound | other results |
| --- | --- | --- |
| 22.6 nM | COc1nc(-c2cccc(-c3cccc4c3CCN4c3nc(C(F)F)nc4cc(CN5C[C@@H](O)[C@H](O)C5)cnc34)c2Cl)cnc1CNC[C@@H]1COC(=O)N1 [Compound 22] |  |
| 32.6 nM | COc1nc(-c2cccc(-c3cccc4c3CCN4c3nc(C(F)F)nc4cc(CN5CC[C@@H](O)C5)cnc34)c2C)ccc1CN1CC[C@@](C)(C(=O)O)C1 [Compound 23] |  |
| 32.6 nM | COc1nc(-c2cccc(-c3cccc4c3CCN4c3nc(C(F)F)nc4cc(CN5CC[C@@H](O)C5)cnc34)c2C)ccc1CN1CC[C@](C)(C(=O)O)C1 [Compound 24] |  |
| 6.71 nM | Cc1c(-c2nc3cc(CN4CC[C@@H](C(=O)O)C4)cc(C#N)c3o2)cccc1-c1cccc2c1CCN2c1nc(C(F)F)nc2cc(CN3CC[C@@H](O)C3)cnc12 [Compound 27] | AUC(0-inf) ([1]; iv, i.v. 1 mg/kg): 2.1 µM·h; AUC(0-t) ([1]; iv, i.v. 1 mg/kg): 1.65 µM·h; clearance ([1]; iv, i.v. 1 mg/kg): 10.6 mL/min/kg; half-life ([1]; iv, i.v. 1 mg/kg): 12.5 h; Vd ([1]; iv, i.v. 1 mg/kg, read-out: Vdss): 8.97 L/kg; bioavailability ([1]; oral, p.o. 10 mg/kg vs i.v. 1 mg/kg): 46.3%; AUC(0-inf) ([1]; po, p.o. 10 mg/kg): 9.73 µM·h; AUC(0-t) ([1]; po, p.o. 10 mg/kg): 8.91 µM·h; Cmax ([1]; po, p.o. 10 mg/kg): 680 nM; Tmax ([1]; po, p.o. 10 mg/kg): 3.33 h; half-life ([1]; po, p.o. 10 mg/kg): 6.23 h; Tumor growth inhibition TGITV (%) (MC38-hPD-L1 colon cancer): 86.1% |
| 4.67 nM | N#Cc1cc(CN2CC[C@@H](C(=O)O)C2)cc2nc(-c3cccc(-c4cccc5c4CCN5c4nc(C(F)F)nc5cc(CN6CC[C@@H](O)C6)cnc45)c3Cl)oc12 [Compound 28] |  |
| 6.03 nM | Cc1c(-c2nc3cc(CN4CC[C@@H](C(=O)O)C4)cnc3o2)cccc1-c1cccc2c1CCN2c1nc(C(F)F)nc2cc(CN3CC[C@@H](O)C3)cnc12 [Compound 29] |  |
| 14.5 nM | Cc1c(-c2nc3cc(CN4CC[C@@](C)(C(=O)O)C4)cnc3o2)cccc1-c1cccc2c1CCN2c1nc(C(F)F)nc2cc(CN3CC[C@@H](O)C3)cnc12 [Compound 30] |  |
| 8.98 nM | Cc1c(-c2nc3cc(CN4CC[C@@H](O)C4)cc(C#N)c3o2)cccc1-c1cccc2c1CCN2c1nc(C(F)F)nc2cc(CN3CC[C@@H](C(=O)O)C3)cnc12 [Compound 32] |  |
| 13.6 nM | Cc1c(-c2nc3cc(CN4CC[C@@](C)(O)C4)cc(C#N)c3o2)cccc1-c1cccc2c1CCN2c1nc(C(F)F)nc2cc(CN3CC[C@@H](C(=O)O)C3)cnc12 [Compound 33] |  |

More lines, now with the values behind:

| Compound | IC50 (PD-1/PD-L1) | other results |
| --- | --- | --- |
| COc1nc(-c2cccc(-c3cccc4c3CCN4c3nccc4cc(CN5CC[C@@H](O)C5)cnc34)c2Cl)ccc1CNC[C@@H]1CCC(=O)N1 [Compound 1] | 35 nM | AUC(0-inf) ([1]; po, p.o. 30 mg/kg): 18.8 µM·h; AUC(0-t) ([1]; po, p.o. 30 mg/kg): 13.7 µM·h; Cmax ([1]; po, p.o. 30 mg/kg): 1460 nM; half-life ([1]; po, p.o. 30 mg/kg): 12 h |
| COc1nc(-c2cccc(-c3cccc4c3CCN4c3nccc4cc(CN5CC[C@@H](O)C5)cnc34)c2Cl)cnc1CNC[C@@H]1CCC(=O)N1 [Compound 2] | 16 nM | AUC(0-inf) ([1]; po, p.o. 30 mg/kg): 23 µM·h; AUC(0-t) ([1]; po, p.o. 30 mg/kg): 20.6 µM·h; Cmax ([1]; po, p.o. 30 mg/kg): 1960 nM; half-life ([1]; po, p.o. 30 mg/kg): 6.9 h |
| COc1nc(-c2cccc(-c3cccc4c3CCN4c3nc(C(F)F)nc4cc(CN5CC[C@@H](O)C5)cnc34)c2Cl)ccc1CNC[C@@H]1CCC(=O)N1 [Compound 3] | 4.7 nM |  |
| COc1nc(-c2cccc(-c3cccc4c3CCN4c3nc(C(F)F)nc4cc(CN5CC[C@@H](O)C5)cnc34)c2Cl)cnc1CNC[C@@H]1CCC(=O)N1 [Compound 4] | 4.5 nM | Tumor growth inhibition TGITV (%) (MC38-hPD-L1 colon cancer): 86.1% |
| N#CCOc1nc(-c2cccc(-c3cccc4c3CCN4c3nc(C(F)F)nc4cc(CN5CC[C@@H](O)C5)cnc34)c2Cl)ccc1CNC[C@@H]1CCC(=O)N1 [Compound 7] | 3 nM |  |
| N#CCOc1nc(-c2cccc(-c3cccc4c3CCN4c3nc(C(F)F)nc4cc(CN5CC[C@@H](C(=O)O)C5)cnc34)c2Cl)ccc1CNC[C@@H]1CCC(=O)N1 [Compound 8] | 3.9 nM |  |
| COc1nc(-c2cccc(-c3cccc4c3CCN4c3nc(C(F)F)nc4cc(CN5CC[C@@H](C(=O)O)C5)cnc34)c2Cl)ccc1CNC[C@@H]1CCC(=O)N1 [Compound 9] | 4.4 nM |  |
| COc1nc(-c2cccc(-c3cccc4c3CCN4c3nc(C(F)F)nc4cc(CN5CC[C@@H](O)C5)cnc34)c2Cl)cnc1CN1CCC(C)(C(=O)O)C1 (stereo partly drawn) [Compound 11] | 24.6 nM |  |
| COc1nc(-c2cccc(-c3cccc4c3CCN4c3nc(C(F)F)nc4cc(CN5CC[C@@H](O)C5)cnc34)c2Cl)cnc1CN1CC[C@@H](O)C1 [Compound 12] | 10.9 nM |  |
| COc1nc(-c2cccc(-c3cccc4c3CCN4c3nc(C(F)F)nc4cc(CN5CC[C@@H](O)C5)cnc34)c2Cl)cnc1CNC[C@H](C(=O)O)C(C)C [Compound 13] | 19 nM |  |
| COc1nc(-c2cccc(-c3cccc4c3CCN4c3nc(C(F)F)nc4cc(CN5CC[C@@H](O)C5)cnc34)c2Cl)cnc1CNCC(C)(C)C(=O)O [Compound 14] | 10.7 nM |  |
| COc1nc(-c2cccc(-c3cccc4c3CCN4c3nc(C(F)F)nc4cc(CN5CC[C@@H](O)C5)cnc34)c2Cl)cnc1CN1CCC[C@H]1CC(=O)O [Compound 15] | 35.1 nM |  |
| COc1nc(-c2cccc(-c3cccc4c3CCN4c3nc(C(F)F)nc4cc(CN5CC[C@@H](O)C5)cnc34)c2Cl)ccc1CN1CCC(C)(C(=O)O)C1 (stereo partly drawn) [Compound 16] | 9.2 nM |  |
| N#CCOc1nc(-c2cccc(-c3cccc4c3CCN4c3nc(C(F)F)nc4cc(CN5CC[C@@H](O)C5)cnc34)c2Cl)ccc1CN1CC[C@@H](C(=O)O)C1 [Compound 17] | 7.5 nM |  |
| COc1nc(-c2cccc(-c3cccc4c3CCN4c3nc(C(F)F)nc4cc(CN5CCC(C)(O)C5)cnc34)c2Cl)cnc1CNC[C@@H]1CCC(=O)N1 (stereo partly drawn) [Compound 18] | 3.5 nM |  |
| COc1nc(-c2cccc(-c3cccc4c3CCN4c3nc(C(F)F)nc4cc(CN5CC[C@@H](O)C5)cnc34)c2C)cnc1CN1CC[C@@H](C(=O)O)C1 [Compound 19] | 30.7 nM |  |
| COc1nc(-c2cccc(-c3cccc4c3CCN4c3nc(C(F)F)nc4cc(CN5CC[C@@H](O)C5)cnc34)c2C)cnc1CN1CCC(C)(C(=O)O)C1 (stereo partly drawn) [Compound 20] | 42.7 nM |  |
| Atezolizumab: PD-L1 monoclonal antibody, approved for urothelial carcinoma and non-small cell lung cancer [reference compound] |  | Tumor growth inhibition TGITV (%) (MC38-hPD-L1 colon cancer): 88.4% |
